Data reported in patent US20100022481A1, “Drug Carriers, Their Synthesis, and Methods of Use Thereof” (priority 2006, published 2010).

Experiments:
rat mandible = assay: Bilateral rat mandible model, bone growth and inflammation, histomorphometry; format: in vivo, Female Sprague Dawley rats; details: for new bone growth / bone anabolic effect (in words): one injection at rat mandible; for New Bone Area (mm^2 ± SEM) / New Bone Width-1 (mm ± SEM) / New Bone Width-3 (mm ± SEM): Table 1, pairs tested on contralateral sides
Description: Specifically, a bilateral rat mandible model was used with test and control samples on contralateral sides. […] The rats were euthanized at 24 days and evaluated histomorphometrically at 24 days.

[1] = Phase solubility of dexamethasone or PGE1 in the presence of ALN-CD
Description: The experiments were carried out in triplicate. Tubes containing the solutions were sealed and shaken at 25° C. for 3 days. Suspensions were then filtered using a syringe through 0.22 μm filter. The concentration of dexamethasone or PGE1 in the filtrate was determined by HPLC equipped with a UV detector. For dexamethasone, 10 μg/ml fluorometholone was used as the internal standard.
The conditions for detecting dexamethasone were as follows: chromatographic column: Agilent C18 reverse-phase (4.6×250 mm, 5 μm; Santa Clara, Calif.); mobile phase: acetonitrile-water (40:60, V/V) at a flow rate of 1 ml/min; UV detection at 240 nm.
The conditions for detecting PGE1 were as follows: chromatographic column: Agilent C18 reverse-phase (4.6×250 mm, 5 μm); mobile phase: acetonitrile-0.01M KH2PO4 (42:58, v/v) at a flow rate of 1 ml/minute; UV detection at 205 nm.

[2] = Binding potential of ALN-CD on HA; details: rhodamine B label; 10 minutes with HA at room temperature, washed with H2O 5-10 times
Description: 20 mg rhodamine B labeled ALN-CD or CD and 1 mg rhodamine B were dissolved in 0.5 ml water separately, and 100 mg of hydroxyapatite (HA) was added. The mixture was then allowed to stir gently for 10 minutes at room temperature. HA was recovered by centrifugation (10,000 rpm, 2 minutes), then washed with H2O 5-10 times to remove unbound compounds. The HA was allowed to dry under vacuum at room temperature.

[3] = 50 μl of 400 mg/mL ALN-CD or 50 μl of 81 mg/ml ALN
[4] = one injection, contralateral sides, 24 days

CCCCC[C@H](O)/C=C/[C@H]1[C@H](O)CC(=O)[C@@H]1CCCCCCC(=O)O [PGE1, prostaglandin E1]
new bone growth / bone anabolic effect (in words) (rat mandible; 24 days): negligible

NCCCC(O)(P(=O)(O)O)P(=O)(O)O [alendronate]
cases with new bone on distant areas of the mandible (e.g., the medial surface) (rat mandible; [3]): 8 of 8
cases with new bone on the lateral surface of the mandible (location of injection) (rat mandible; [3]): 5 of 8
New Bone Area (mm^2 ± SEM) (rat mandible; 24 days): 0.61 ± 0.12 mm^2
New Bone Width-1 (mm ± SEM) (rat mandible; 24 days): 0.14 ± 0.05 mm
New Bone Width-3 (mm ± SEM) (rat mandible; 24 days): 0.24 ± 0.11 mm
new bone area (rat mandible; equivalent amounts of ALN: 50 μl of 400 mg/mL ALN-CD or 50 μl of 81 mg/ml ALN): 0.61 ± 0.12 mm^2
new bone growth / bone anabolic effect (in words) (rat mandible; 24 days): moderate bone anabolic effect

C[C@@H]1C[C@H]2[C@@H]3CCC4=CC(=O)C=C[C@]4(C)[C@@]3(F)[C@@H](O)C[C@]2(C)[C@@]1(O)C(=O)CO [dexamethasone]
aqueous solubility as a function of the concentration of ALN-CD ([1]; ALN-CD 0 to 10 mM, 25° C., 3 days): increases
apparent 1:1 stability constant Kc ([1]; complex with ALN-CD, water, 25° C.): 2570 M⁻¹
solubility diagram type according to Higuchi and Connors ([1]; with ALN-CD): AL type

CCN(CC)c1ccc2c(-c3ccccc3C(=O)O)c3ccc(=[N+](CC)CC)cc-3oc2c1.[Cl-] [rhodamine B]
color of HA after washings (binding to the HA surface) [2]: disappeared

hydroxypropyl(HP)-β-CD [HP-β-CD]
New Bone Area (mm^2 ± SEM) (rat mandible; 24 days): 0.25 ± 0.08 mm^2
New Bone Width-1 (mm ± SEM) (rat mandible; 24 days): 0.05 ± 0.02 mm
New Bone Width-3 (mm ± SEM) (rat mandible; 24 days): 0.19 ± 0.11 mm
increase in new bone width (rat mandible; [4]): 0.07±0.10 mm
percentage of osteoblasts on the lateral periosteal surface (rat mandible; [4]): 7.3%
